Data on three molecules can be found in paper PMC9394386 (Cancer Discovery, 2022).

The test system of series [1] is human T cells with CHO PD-L1 cells. Briefly: Artificial antigen-presenting cell system, IFNγ secretion. In kind it is cell-based. To be noted: for Maximal levels of IFNγ, induction: atezolizumab at 10 nmol/L.
Series [2] deals with MC38 huPD-L1 tumors. Description: MC38 huPD-L1 tumor efficacy in C57BL/6 mice. In kind it is in vivo, mouse.
For series [3], the target named is T1, PD-L1 in CHO PD-L1 cells (Homo sapiens, UniProt Q9NZQ7). Description: Confocal microscopy of PD-L1 internalization. It counts as cell-based. The following applies: 18 hours, INCB086550 1 µmol/L, atezolizumab 10 µg/mL.
T1 sequence (Q9NZQ7 19-290): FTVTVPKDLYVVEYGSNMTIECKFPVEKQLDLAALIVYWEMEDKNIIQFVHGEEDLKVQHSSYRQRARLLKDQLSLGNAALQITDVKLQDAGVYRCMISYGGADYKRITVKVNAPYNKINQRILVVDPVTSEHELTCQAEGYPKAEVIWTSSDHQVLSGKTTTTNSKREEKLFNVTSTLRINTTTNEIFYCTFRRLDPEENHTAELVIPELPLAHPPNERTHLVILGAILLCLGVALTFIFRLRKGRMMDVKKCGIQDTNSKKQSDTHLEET
Series [4] has as its target PD-L1 on monocytes (Macaca fascicularis, UniProt G7PSE7). Description: Unoccupied PD-L1 on monocytes in cynomolgus whole blood. In kind it is cell-based, cynomolgus monkey. The following applies: read-out: EC50, reducing unoccupied cell-surface PD-L1 on monocytes.
For the next series, the target named is cynomolgus PD-L1 (Macaca fascicularis, UniProt G7PSE7). Description: PD-L1/PD-1 HTRF binding assay, cynomolgus PD-L1.
Chain of cynomolgus PD-L1 (G7PSE7 19-239): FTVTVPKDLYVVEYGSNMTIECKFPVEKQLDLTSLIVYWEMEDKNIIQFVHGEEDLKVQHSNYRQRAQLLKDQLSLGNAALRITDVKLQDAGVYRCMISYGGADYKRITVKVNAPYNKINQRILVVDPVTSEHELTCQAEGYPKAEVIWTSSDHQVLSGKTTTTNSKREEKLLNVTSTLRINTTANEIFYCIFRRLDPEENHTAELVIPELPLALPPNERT
Chain of cynomolgus PD-L1 (Q15116 25-167 partner): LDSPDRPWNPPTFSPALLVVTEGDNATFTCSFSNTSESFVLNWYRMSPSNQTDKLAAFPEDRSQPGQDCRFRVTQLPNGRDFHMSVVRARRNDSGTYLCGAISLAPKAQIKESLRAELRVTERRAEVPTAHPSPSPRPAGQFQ
Series [5] addresses human PD-L1 on MBT2 clones (Homo sapiens, UniProt Q9NZQ7). Briefly: Isogenic MBT2 cell line PD-L1 internalization. To be noted: EC50, PD-L1 internalization (MIH1), 16 hours. It counts as cell-based.
Series [6] concerns the target PD-L1 on MC38 huPD-L1 tumors (Homo sapiens, UniProt Q9NZQ7). Description: PD-L1 levels on MC38 huPD-L1 tumors. To be noted: 200 mg/kg, clone MIH1. In kind it is in vivo, mouse.
The target of series [7] is T2, PD-L1 (aa 19-239) (Homo sapiens, UniProt Q9NZQ7). Description: Isothermal titration calorimetry. It counts as binding.
T2 sequence (Q9NZQ7 19-239): as the sequence (G7PSE7 19-239) above, with T33A, S34A, N62S, Q68R, R82Q, L173F, A185T, I192T, L215H counted along it
Series [8] addresses T3, PD-L1 on CHO PD-L1 cells (Homo sapiens, UniProt Q9NZQ7). Description: Unoccupied and total PD-L1 by flow cytometry. In kind it is cell-based. To be noted: 18 hours.
Another series can be described thus: Tolerability in mice. The following applies: mouse, in vivo.
Another series has as its system MDA-MB-231 tumors. Description: MDA-MB-231 tumor efficacy in NSG mice. It counts as in vivo, mouse. The following applies: 20 mg/kg.
Series [9] in a line: 28-day toxicology study in rats. It counts as in vivo, rat.
Series [10] has as its target T4, PD-L1 (Homo sapiens, UniProt Q9NZQ7). Briefly: Flow cytometry competition with anti–PD-L1 mAbs on CHO PD-L1 cells. It counts as cell-based. To be noted: 1 µmol/L.
Target sequence in this assay (Q9NZQ7 19-290): as the sequence (Q9NZQ7 19-290) above
In series [11] the target is T2, PD-L1 (aa 19-239). Description: SEC-MALS of PD-L1 complexes. It counts as binding. To be noted: 15 µmol/L PD-L1, 100 µmol/L compound.
Series [12] relates to plasma CXCL9, CXCL10, IFNγ, PD-L1. Description: Proteins in peripheral blood of phase I patients. It counts as in vivo, human.
The target of series [13] is T3, PD-L1 on CHO PD-L1 cells. Description: Cell-based PD-1 binding assay. The following applies: concentrations ≥160 nmol/L.
The target of series [14] is T3, PD-L1 on CHO PD-L1 cells. Description: Live-cell imaging of PD-L1 internalization. In kind it is cell-based. To be noted: 1 µmol/L.
In another series the test system is NFAT signaling. Briefly: NFAT reporter assay. In kind it is cell-based. The following applies: read-out: NFAT activation (IC50 in Table 1, EC50 in text).
Series [15] has as its target T4, PD-L1. Description: PD-L1/PD-1 HTRF binding assay, human PD-L1.
Target sequence in this assay (Q9NZQ7 19-238 limits assumed): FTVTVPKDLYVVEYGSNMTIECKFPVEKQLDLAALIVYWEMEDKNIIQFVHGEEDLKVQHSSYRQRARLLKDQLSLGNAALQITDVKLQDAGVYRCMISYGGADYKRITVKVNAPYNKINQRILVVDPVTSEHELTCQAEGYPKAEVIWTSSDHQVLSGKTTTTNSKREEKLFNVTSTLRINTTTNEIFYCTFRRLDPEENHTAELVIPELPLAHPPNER
The target of another series is rat PD-L1 (Rattus norvegicus, UniProt D4AE25). Description: PD-L1/PD-1 HTRF binding assay, rat PD-L1. The following applies: human PD-1.
Chain of rat PD-L1 (D4AE25 19-238): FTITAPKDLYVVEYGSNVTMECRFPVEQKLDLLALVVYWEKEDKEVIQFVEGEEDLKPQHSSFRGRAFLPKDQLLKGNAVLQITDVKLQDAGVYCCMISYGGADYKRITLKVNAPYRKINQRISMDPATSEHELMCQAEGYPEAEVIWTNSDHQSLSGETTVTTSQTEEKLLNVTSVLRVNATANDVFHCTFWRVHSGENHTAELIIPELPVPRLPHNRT
Chain of rat PD-L1 (Q15116 25-167 partner): as the sequence (Q15116 25-167 partner) above
For series [16], the target named is T5, PD-L1 on monocytes (Homo sapiens, UniProt Q9NZQ7). Briefly: Unoccupied PD-L1 on monocytes in human whole blood. In kind it is cell-based.
T5 sequence (Q9NZQ7 19-290): as the sequence (Q9NZQ7 19-290) above
Series [17] concerns MC38 huPD-L1 tumors. Briefly: MC38 huPD-L1 tumor efficacy in NSG mice. The following applies: NSG mice, 2, 20, 200 mg/kg b.i.d. In kind it is in vivo, mouse.
The target in another series is mouse PD-L1 (Mus musculus, UniProt Q9EP73). Description: PD-L1/PD-1 HTRF binding assay, mouse PD-L1.
Chain of mouse PD-L1 (Q9EP73 19-238 limits assumed): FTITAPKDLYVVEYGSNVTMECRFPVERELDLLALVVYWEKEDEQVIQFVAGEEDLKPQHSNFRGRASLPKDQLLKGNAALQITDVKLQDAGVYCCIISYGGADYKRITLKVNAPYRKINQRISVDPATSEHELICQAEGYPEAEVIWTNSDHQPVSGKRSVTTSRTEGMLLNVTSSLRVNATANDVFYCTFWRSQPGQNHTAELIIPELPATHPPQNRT
The target in series [18] is T5, PD-L1 on monocytes. Description: Available PD-L1 on monocytes from clinical study patients. In kind it is in vivo.
Another series has as its system target lesion. Briefly: Clinical activity in phase I study. It counts as in vivo, human. To be noted: patient, week 24.
The target in series [19] is T1, PD-L1 in CHO PD-L1 cells. Briefly: Total PD-L1 by Western blot. In kind it is cell-based. The following applies: 0.2 or 1 µM.
Series [20] relates to PD-1–mediated SHP recruitment. Briefly: PD-1–SHP reporter assay. The following applies: read-out: IC50, SHP recruitment. In kind it is cell-based.
Series [21] can be described thus: 28-day toxicology study in monkeys. It counts as in vivo, monkey.
For the next series, the target named is human PD-L2 (Homo sapiens, UniProt Q9BQ51). Description: PD-L2/PD-1 HTRF binding assay.
Chain of human PD-L2 (Q9BQ51 20-219 limits assumed): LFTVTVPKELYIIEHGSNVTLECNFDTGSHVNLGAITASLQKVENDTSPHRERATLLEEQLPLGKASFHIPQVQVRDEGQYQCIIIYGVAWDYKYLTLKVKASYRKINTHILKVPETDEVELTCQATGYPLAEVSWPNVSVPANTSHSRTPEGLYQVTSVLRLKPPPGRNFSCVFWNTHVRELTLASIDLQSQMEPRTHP
Series [22] has as its target Human PD-L1-FLAG tag protein (Homo sapiens, UniProt Q9NZQ7). Briefly: SPR antibody competition. In kind it is binding. To be noted: 1 µM.
[23] abbreviates: all tested doses up to 1,000 mg/kg.

Values joined by “and” are separate entries in the source; they are usually repeats but may differ in a detail not shown here. Equal entries are not always repeated. Positions of bridges follow the written chain, without caps; N, C: chain ends. Non-standard residues stand in square brackets, D forms with d. Residues, ends and D or L forms follow the SMILES beside them. NMeF = CN[C@@H](Cc1ccccc1)C(=O)O; NMeNle = CCCC[C@H](NC)C(=O)O; Sar = CNCC(=O)O

T3 sequence (Q9NZQ7 19-290): as the sequence (Q9NZQ7 19-290) above
Chain of human PD-L1 on MBT2 clones (Q9NZQ7 19-127 limits assumed): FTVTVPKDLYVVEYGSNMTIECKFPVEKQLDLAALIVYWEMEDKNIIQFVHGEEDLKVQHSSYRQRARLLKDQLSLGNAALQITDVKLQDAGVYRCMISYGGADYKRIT
Chain of PD-L1 on MC38 huPD-L1 tumors (Q9NZQ7 19-290): as the sequence (Q9NZQ7 19-290) above
Chain of Human PD-L1-FLAG tag protein (Q9NZQ7 19-290): as above
Chain of PD-L1 on monocytes (Macaca fascicularis, UniProt G7PSE7) (G7PSE7 19-290): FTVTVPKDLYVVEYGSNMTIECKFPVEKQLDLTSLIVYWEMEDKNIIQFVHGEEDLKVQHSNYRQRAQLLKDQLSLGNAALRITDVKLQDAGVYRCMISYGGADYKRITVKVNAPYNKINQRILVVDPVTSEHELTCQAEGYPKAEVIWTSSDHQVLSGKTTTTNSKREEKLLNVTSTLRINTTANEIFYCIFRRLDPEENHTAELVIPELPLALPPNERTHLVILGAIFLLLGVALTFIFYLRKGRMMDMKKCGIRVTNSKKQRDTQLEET

Regarding “atezolizumab: clinical anti–PD-L1 monoclonal antibody [reference compound]”, in series [1], the “Maximal levels of IFNγ, induction” value stood at 433%. Further, the “tumor growth inhibition (TGI)” value in the series with MC38 huPD-L1 tumors [2] (5 mg/kg intraperitoneally every 5 days) was found to be 73%. Besides, in the series with PD-L1 in CHO PD-L1 cells [3], the “PD-L1 internalization, clone 28-8 staining” value was “only minor levels of PD-L1 internalization”.
In the case of `Cc1c(Nc2nccc3cc(CN4CC[C@@H](O)C4)cnc23)cccc1-c1cccc(-c2nc3cc(CN4CC[C@@H](C(=O)O)C4)cc(C#N)c3o2)c1C` [INCB086550], the EC50 at PD-L1 on monocytes [4] is 4.5 nM; in series [5] (MBT2-PD-L1 high), 0.1 nM; in series [5] (MBT2-PD-L1 low) it was 3.7 nM; in [5] (MBT2-PD-L1 medium), 0.4 nM; with NFAT signaling it was 21.4 ± 8.4 nM; on PD-L1 on monocytes [16] it was 88 nM. Besides, the IC50 was 4.9 ± 1.6 nM on cynomolgus PD-L1; 3.1 ± 1.2 nM at PD-L1 [15]; 1.9 nM and < 1.5 nM at rat PD-L1; more than 10000 nM on mouse PD-L1; 6.3 ± 2.5 nM in series [20]; more than 10000 nM on human PD-L2. The “Maximum reduction of occupied PD-L1” value in series [6] is more than 90%. Also, the “Binding stoichiometry n (ITC)” value on PD-L1 (aa 19-239) [7] worked out at 0.6. Moreover, the “Maximal levels of IFNγ, induction” value in series [1] is given as 425%. Further, in [1] (cell-based assays), the Toxicity to cells result is “No overt toxicity”. For the same molecule, the “Epitope occupancy of PD-L1, clone MIH1” value on PD-L1 on CHO PD-L1 cells [8] is more than 90%. In addition, the “Reduction of PD-L1 staining, clone 28-8 (total cell-surface PD-L1)” value at PD-L1 on CHO PD-L1 cells [8] is “approximately 70%”. Moreover, the “Adverse effects in mice” value in “Tolerability in mice” is recorded as “no adverse effects”. Also, the “tumor growth inhibition (TGI)” value with MC38 huPD-L1 tumors [2] (2 mg/kg p.o. b.i.d., day 16) is recorded as 32%; in the series with MC38 huPD-L1 tumors [2] (20 mg/kg p.o. b.i.d., day 16), 66%; in the series with MC38 huPD-L1 tumors [2] (200 mg/kg p.o. b.i.d., day 16), 69%. The “Antitumor activity in immunodeficient mice” value in the series on MDA-MB-231 tumors and in the series on MC38 huPD-L1 tumors [17] was “abolished” each time. The “Dose at which associated events were observed (minimal to mild, nonadverse)” value in series [9] is 1,000 mg/kg/day. Also, the Tolerability result in [9] (setting [23]) and in [21] (setting [23]) was “well tolerated” each time. The “Binding of atezolizumab and durvalumab to PD-L1 after pretreatment” value at PD-L1 [10] was “blocked binding”. Further, the “SEC-MALS peak of PD-L1 in presence of compound” value on PD-L1 (aa 19-239) [11] is recorded as approximately 69 kDa. In series [12] (all dose levels, cycle 2 day 1), the “Increase in plasma cell-free PD-L1 vs baseline” value is given as 1.4 fold. Moreover, the “Increase in plasma IFNγ vs baseline” value in series [12] (cycle 1 day 8) is 3.8 fold. Moreover, in series [12] (cycle 2 day 1), the “Increase in plasma CXCL9 vs baseline” value amounted to 1.8 fold. Moreover, the “Increase in plasma CXCL10 vs baseline” value in series [12] (cycle 2 day 1) is reported as 1.4 fold. Besides, the “Inhibition of PD-1/PE binding” value on PD-L1 on CHO PD-L1 cells [13] is recorded as more than 90%. The “PD-L1 internalization, clone 28-8 staining” value on PD-L1 in CHO PD-L1 cells [3] is “internalization of PD-L1 and increased cytoplasmic staining”. Besides, the “Time to maximal PD-L1 internalization” value at PD-L1 on CHO PD-L1 cells [14] is approximately 4 h. Besides, the IC90 on PD-L1 on monocytes [16] (read-out: whole blood IC90) was determined as 792 nM. Further, the “Binding to mouse PD-L1” value on mouse PD-L1 (HTRF) is reported as “not detected”. Besides, at PD-L1 on monocytes [18], the “Dose reaching maximum inhibition of free PD-L1” value worked out at 200 mg b.i.d. The Preliminary clinical activity result in the series on target lesion is “decrease in target lesion volume”. Also, on PD-L1 in CHO PD-L1 cells [19], the “Change in total PD-L1 in cells” value is “decrease of overall PD-L1”. Moreover, the Doses with emesis in [21] (no evidence of target organ toxicity) was not below 200 mg/kg/day. Also, the “Inhibition of binding of PD-L2 to human PD-1” value on human PD-L2 (concentrations up to 10 µmol/L) is “not inhibited”. In addition, the “Binding of atezolizumab and durvalumab to PD-L1 (SPR)” value in [22] is listed as “inhibited binding”.
`CCCC[C@H]1C(=O)N(C)CC(=O)N[C@@H](CC(=O)O)C(=O)N[C@@H](C(C)C)C(=O)N(C)[C@@H](Cc2ccccc2)C(=O)N[C@@H](Cc2ccc(O)cc2)C(=O)N(C)CC(=O)N[C@@H](Cc2c[nH]c3ccccc23)C(=O)N[C@@H](Cc2ccc(O)cc2)C(=O)N[C@@H](CC(C)C)C(=O)N[C@H](C(=O)NCC(N)=O)CSCC(=O)N[C@@H](Cc2ccccc2)C(=O)N(C)[C@@H](Cc2ccccc2)C(=O)N1C` [peptide 71, reference compound] ({CH2CO}-F[NMeF][NMeNle][Sar]DV[NMeF]Y[Sar]WYLCG-NH2; thioether N-13; N-terminus and C-terminus assumed): the “SEC-MALS peak of PD-L1 in presence of compound” value at PD-L1 (aa 19-239) [11] was “approximately 33 kDa”.
